# Measured values from patent US9469650B2, “Melampomagnolide B derivatives” (BOARD OF TRUSTEES OF THE UNIVERSITY OF ARKANSAS, priority 2013, dated 2016).
# Tests used:
# K-562 = experiment: panel of 60 human tumor cell lines, growth inhibition (Leukemia)
# MOLT-4 = experiment: as above; details: Homo sapiens
# SR = experiment: as above; details: Homo sapiens
# LOX IMVI = experiment: panel of 60 human tumor cell lines, growth inhibition (Melanoma); details: Homo sapiens
# UACC-257 = experiment: as above
# SF-295 = experiment: panel of 60 human tumor cell lines, growth inhibition (CNS Cancer); details: Homo sapiens
# SF-539 = experiment: as above; details: Homo sapiens
# U251 = experiment: as above; details: Homo sapiens
# COLO 205 = experiment: panel of 60 human tumor cell lines, growth inhibition (Colon Cancer); details: Homo sapiens
# SW-620 = experiment: as above; details: Homo sapiens
# CAKI-1 = experiment: panel of 60 human tumor cell lines, growth inhibition (Renal Cancer); details: Homo sapiens
# MDA-MB-468 = experiment: panel of 60 human tumor cell lines, growth inhibition (Breast Cancer); details: Homo sapiens
# OVCAR-3 = experiment: panel of 60 human tumor cell lines, growth inhibition (Ovarian Cancer)
# PC-3 = experiment: panel of 60 human tumor cell lines, growth inhibition (Prostate Cancer); details: Homo sapiens
# HOP-62 = experiment: panel of 60 human tumor cell lines, growth inhibition (Non-Small Cell Lung Cancer); details: Homo sapiens
# HOP-92 = experiment: as above; details: Homo sapiens
# NCI-H322M = experiment: as above; details: Homo sapiens
smiles,measurement,setting,value
C=C1C(=O)O[C@H]2[C@H]1CC/C(COC(=O)OCCCN1CCCCC1)=C\CC[C@@]1(C)O[C@@H]21 [JVM 2-26],GI50,"K-562; Homo sapiens, K562",3.27 µM
same,CC50,"K-562; Homo sapiens, K562, read-out: LC50",> 100 µM
same,TGI,K-562; K-562,1.52E−5
same,Percent Growth,"K-562; K-562, Log10 Concentration −4.0",−42%
same,Percent Growth,"K-562; K-562, Log10 Concentration −5.0",9%
same,Percent Growth,"K-562; K-562, Log10 Concentration −6.0",93%
same,Percent Growth,"K-562; K-562, Log10 Concentration −7.0",96. %
same,Percent Growth,"K-562; K-562, Log10 Concentration −8.0",100%
same,GI50,MOLT-4; MOLT-4,4.07 µM
same,CC50,"MOLT-4; MOLT-4, read-out: LC50",98.7 µM
same,IC (TGI),"MOLT-4; MOLT-4, read-out: TGI",10.4 µM
same,GI50,SR,2.12 µM
same,CC50,SR; read-out: LC50,83.9 µM
same,IC (TGI),SR; read-out: TGI,10.2 µM
same,GI50,LOX IMVI,3.15 µM
same,CC50,LOX IMVI; read-out: LC50,37.8 µM
same,IC (TGI),LOX IMVI; read-out: TGI,11.7 µM
same,GI50,"UACC-257; Homo sapiens, UACC-257",5.34 µM
same,CC50,"UACC-257; Homo sapiens, UACC-257, read-out: LC50",45.6 µM
same,TGI,UACC-257; UACC-257,1.87E−5
same,Percent Growth,"UACC-257; UACC-257, Log10 Concentration −4.0",−94%
same,Percent Growth,"UACC-257; UACC-257, Log10 Concentration −5.0",35%
same,Percent Growth,"UACC-257; UACC-257, Log10 Concentration −6.0",90%
same,Percent Growth,"UACC-257; UACC-257, Log10 Concentration −7.0",67%
same,Percent Growth,"UACC-257; UACC-257, Log10 Concentration −8.0",91%
same,GI50,SF-295; SF-295,15.4 µM
same,CC50,"SF-295; SF-295, read-out: LC50",73.2 µM
same,IC (TGI),"SF-295; SF-295, read-out: TGI",33.5 µM
same,GI50,SF-539; SF-539,2.39 µM
same,CC50,"SF-539; SF-539, read-out: LC50",32.1 µM
same,IC (TGI),"SF-539; SF-539, read-out: TGI",8.7 µM
same,GI50,U251; U-251,16.7 µM
same,CC50,"U251; U-251, read-out: LC50",62.7 µM
same,IC (TGI),"U251; U-251, read-out: TGI",32.4 µM
same,GI50,COLO 205; COLO 205,1.7 µM
same,CC50,"COLO 205; COLO 205, read-out: LC50",7.07 µM
same,IC (TGI),"COLO 205; COLO 205, read-out: TGI",3.47 µM
same,GI50,"SW-620; SW-620, SW-620",2.23 µM
same,CC50,"SW-620; SW-620, read-out: LC50",37.3 µM
same,IC (TGI),"SW-620; SW-620, read-out: TGI",8.74 µM
same,GI50,CAKI-1; CAKI-1,2.19 µM
same,CC50,"CAKI-1; CAKI-1, read-out: LC50",34.5 µM
same,IC (TGI),"CAKI-1; CAKI-1, read-out: TGI",11.9 µM
same,GI50,MDA-MB-468; MDA-MB-468,0.601 µM
same,CC50,"MDA-MB-468; MDA-MB-468, read-out: LC50",10.5 µM
same,IC (TGI),"MDA-MB-468; MDA-MB-468, read-out: TGI",2.78 µM
same,GI50,"OVCAR-3; Homo sapiens, OVCAR-3",1.96 µM
same,CC50,"OVCAR-3; Homo sapiens, OVCAR-3, read-out: LC50",22 µM
same,IC (TGI),"OVCAR-3; Homo sapiens, OVCAR-3, read-out: TGI",5.88 µM
same,Percent Growth,"OVCAR-3; OVCAR-3, Log10 Concentration −4.0",−100%
same,Percent Growth,"OVCAR-3; OVCAR-3, Log10 Concentration −5.0",−24%
same,Percent Growth,"OVCAR-3; OVCAR-3, Log10 Concentration −6.0",80%
same,Percent Growth,"OVCAR-3; OVCAR-3, Log10 Concentration −7.0",96%
same,Percent Growth,"OVCAR-3; OVCAR-3, Log10 Concentration −8.0",98%
same,GI50,PC-3; PC-3,12.7 µM
same,CC50,"PC-3; PC-3, read-out: LC50",56.2 µM
same,IC (TGI),"PC-3; PC-3, read-out: TGI",16.7 µM
same,GI50,HOP-62; HOP-62,15.3 µM
same,CC50,"HOP-62; HOP-62, read-out: LC50",57.7 µM
same,IC (TGI),"HOP-62; HOP-62, read-out: TGI",19.8 µM
same,GI50,"HOP-92; HOP-92, HOP-92",1.96 µM
same,CC50,"HOP-92; HOP-92, read-out: LC50",31.4 µM
same,IC (TGI),"HOP-92; HOP-92, read-out: TGI",7.47 µM
same,GI50,NCI-H322M,17.2 µM
same,CC50,NCI-H322M; read-out: LC50,> 100 µM
same,IC (TGI),NCI-H322M; read-out: TGI,54.4 µM
